Measured values taken from paper PMC11992225, “Antibacterial compounds against non-growing and intracellular bacteria” (npj Antimicrobials and Resistance, 2025).
Values after ≈ are worked out from the molar mass of the structure shown. Values joined by “and” are separate entries in the source; they are usually repeats but may differ in a detail not shown here. Equal entries are not always repeated. Where two headings read alike, the source gives them in different places.

How the values were obtained:
[1] = test system: non-growing S. aureus DSM2569; test: Dose-dependent killing analysis (CFU spot-plating) of stationary-phase S. aureus; type: cell-based, Staphylococcus aureus; settings: S. aureus, vs 9,097 before treatment
Description: To determine the spectrum of activity of the compounds that were effective against non-growing UPEC, we further assessed their efficacy against the well-characterized Gram-negative and Gram-positive reference strains P. aeruginosa DSM1117 and S. aureus DSM2569, respectively. The cultures were grown and treated for 24 h in 1:4 CA-MHB (pH 7.4). […].
For survival analysis, bacteria were cultivated as described for the dose–response dilution-regrowth assay. Assays with UPEC were conducted at the CBCS screening facility using 96-well plates with a 200 μl sample volume, and compounds were dispensed using the Echo® (Labcyte) system. P. aeruginosa and S. aureus samples were treated according to the protocol used for the dilution-regrowth experiments. Treated samples were serially diluted 10-fold in PBS, and 10 μl drops were spot-plated onto rectangular LB agar plates using either a Beckman NXP robot (for UPEC) or an Integra VIAFLO96 electronic pipette (for P. aeruginosa and S. aureus). The LB agar plates were incubated overnight at 37 °C and scanned. Colonies were counted at the spots of the lowest dilution where individual colonies could be accurately distinguished. Each colony was manually marked on a separate image layer using the GNU Image Manipulation Program, and counted using NIST’s Integrated Colony Enumerator (NICE 1.4) software. The experiments were performed in three biological replicates.

[2] = test system: S. aureus DSM2569; test: MIC, standard microdilution assay, growing S. aureus; type: cell-based, Staphylococcus aureus; settings: Staphylococcus aureus, DSM2569; S. aureus; CA-MHB pH 7.4; read-out: MIC (μM) CA-MHB
Summary of the method: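 Each strain was exposed to serially diluted compound in broth, in triplicate. The media were TSB for Shigella; CA-MHB at pH 7.4 (HEPES 40 mM) for S. aureus, P. aeruginosa and UPEC; and, for UPEC only, low-pH LPM (pH 5.5, 30 mM MES).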

[3] = test system: non-growing UPEC CFT073; test: Dilution-regrowth assay (screen, hit validation, dose-response) on stationary-phase UPEC; type: cell-based, Escherichia coli; settings: for EC50: Escherichia coli, E. coli, regrowth delay of non-growing bacteria, 24 h treatment, OD600 6 h after 2500-fold dilution, read-out: EC50; for Regrowth, OD600 at 6h or 8h after dilution into drug-free medium: average
Summary of the method: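 Regrowth (OD600 after 6 h, 37 °C) of diluted non-growing CFT073, following 24 h compound treatment of 24 h stationary cultures, defines activity relative to untreated control. Screen at 20 µM, validation at 20, 10, 5 µM (duplicates), dose–response in three biological replicates fitted by five-parameter logistic.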

[4] = test system: non-growing UPEC CFT073; test: Dose-dependent killing analysis (CFU spot-plating) of stationary-phase UPEC; type: cell-based, Escherichia coli; settings: E. coli in 1:4 CA-MHB (pH 7.4); for log10(CFU/ml) after treatment: individual replicates; for log10(CFU/ml) of treated nongrowing bacteria (single replicates): before treatment 8.977
Summary of the method: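 Killing assessed by CFU counts: overnight 37 °C LB agar spot plates (10 μl drops of 10-fold PBS dilutions) scored at the lowest dilution with distinct colonies. Samples were compound-treated non-growing UPEC CFT073, 200 μl per well. Performed as three biological replicates.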

[5] = test system: non-growing P. aeruginosa DSM1117; test: Dose-dependent killing analysis (CFU spot-plating) of stationary-phase P. aeruginosa; type: cell-based, Pseudomonas aeruginosa; settings: for log10(CFU/ml) after treatment / killing, average Δlog10(CFU/ml) / log10(CFU/ml) of treated nongrowing bacteria (single replicates): P. aeruginosa; for log10(CFU/ml) after treatment: individual replicates; for log10(CFU/ml) of treated nongrowing bacteria (single replicates): before treatment 8.887
Summary of the method: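 Viability by CFU: samples serially diluted 10-fold in PBS, spotted on LB agar, grown overnight at 37 °C, and colonies counted at the lowest resolvable dilution. Non-growing P. aeruginosa DSM1117 had been dosed for 24 h in 1:4 CA-MHB (pH 7.4); three biological replicates.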

Question: With `CN1CCN(c2cc3c(cc2F)c(=O)c(C(=O)O)cn3-c2ccc(F)cc2)CC1` [Difloxacin] as the compound, how does the “average Δlog10(CFU/ml) (killing)” value ([1]; drug conc 0.1) read?
Answer: The value was 0.032 log10(CFU/ml).

Question: And the “average Δlog10(CFU/ml) (killing)” value ([1]; drug conc 0.5)?
Answer: Its value is 0.171 log10(CFU/ml).

Question: And the “average Δlog10(CFU/ml) (killing)” value ([1]; drug conc 2.5)?
Answer: Its value is 0.107 log10(CFU/ml).

Question: And the “average Δlog10(CFU/ml) (killing)” value ([1]; drug conc 10)?
Answer: Its value is 0.435 log10(CFU/ml).

Question: And the MIC [2]?
Answer: Its MIC is 1 µM (≈ 0.399 µg/mL).

Question: What about the EC50 ([3]; LPM pH 5.5) of the same compound?
Answer: Its EC50 is 9.95 µM.

Question: And the EC50 ([3]; pH 7.4, 1:4 CA-MHB)?
Answer: The EC50 was 6.46 µM.

Question: Which results are given for `Cc1oc(=O)oc1CN1CCN(c2cc3c(cc2F)c(=O)c(C(=O)O)c2n3C(C)S2)CC1` (stereo not shown) [Prulifloxacin]?
Answer: MIC [2]: 4 µM (≈ 1.85 µg/mL); Regrowth, OD600 at 6h or 8h after dilution into drug-free medium ([3]; E. coli in 1:4 CA-MHB (pH 7.4), concentration 1): 0.198; Regrowth, OD600 at 6h or 8h after dilution into drug-free medium ([3]; E. coli in 1:4 CA-MHB (pH 7.4), concentration 2.5): 0.109; Regrowth, OD600 at 6h or 8h after dilution into drug-free medium ([3]; E. coli in 1:4 CA-MHB (pH 7.4), concentration 5): 0.093; Regrowth, OD600 at 6h or 8h after dilution into drug-free medium ([3]; E. coli in 1:4 CA-MHB (pH 7.4), concentration 10): 0.094; Regrowth, OD600 at 6h or 8h after dilution into drug-free medium ([3]; E. coli in 1:4 CA-MHB (pH 7.4), concentration 30): 0.092; Regrowth, OD600 at 6h or 8h after dilution into drug-free medium ([3]; E. coli in LPM (pH 5.5), concentration 1): 0.586; Regrowth, OD600 at 6h or 8h after dilution into drug-free medium ([3]; E. coli in LPM (pH 5.5), concentration 2.5): 0.570; Regrowth, OD600 at 6h or 8h after dilution into drug-free medium ([3]; E. coli in LPM (pH 5.5), concentration 5): 0.549; Regrowth, OD600 at 6h or 8h after dilution into drug-free medium ([3]; E. coli in LPM (pH 5.5), concentration 10): 0.564; Regrowth, OD600 at 6h or 8h after dilution into drug-free medium ([3]; E. coli in LPM (pH 5.5), concentration 30): 0.416; EC50 ([3]; pH 7.4, 1:4 CA-MHB): 0.571 µM; log10(CFU/ml) after treatment ([4]; concentration 1): 9.041 log10(CFU/ml) (2×) and 8.398 log10(CFU/ml); log10(CFU/ml) after treatment ([4]; concentration 2.5): 8.845 log10(CFU/ml) and 8.230 log10(CFU/ml) and 7.903 log10(CFU/ml); log10(CFU/ml) after treatment ([4]; concentration 5): 8.477 log10(CFU/ml) and 7.699 log10(CFU/ml) and 7.176 log10(CFU/ml); log10(CFU/ml) after treatment ([4]; concentration 10): 7.903 log10(CFU/ml) and 7.176 log10(CFU/ml) (2×); killing, average Δlog10(CFU/ml) ([4]; drug concentration 0.25): 0.155 log10(CFU/ml); log10(CFU/ml) of treated nongrowing bacteria (single replicates) ([4]; drug concentration 0.25): 9.322 log10(CFU/ml) and 8.845 log10(CFU/ml) and 8.301 log10(CFU/ml); killing, average Δlog10(CFU/ml) ([4]; drug concentration 0.5): 0.462 log10(CFU/ml); log10(CFU/ml) of treated nongrowing bacteria (single replicates) ([4]; drug concentration 0.5): 8.903 log10(CFU/ml) and 8.301 log10(CFU/ml) and 8.342 log10(CFU/ml); log10(CFU/ml) after treatment ([5]; concentration 2.5): =<4 log10(CFU/ml) (2×) and 4.602 log10(CFU/ml); killing, average Δlog10(CFU/ml) ([5]; concentration 2.5, vs CFU before treatment): 4.687 log10(CFU/ml); log10(CFU/ml) after treatment ([5]; concentration 10): =<4 log10(CFU/ml); killing, average Δlog10(CFU/ml) ([5]; concentration 10, vs CFU before treatment): 4.887 log10(CFU/ml); killing, average Δlog10(CFU/ml) ([5]; drug concentration 0.1): 0.555 log10(CFU/ml); log10(CFU/ml) of treated nongrowing bacteria (single replicates) ([5]; drug concentration 0.1): 8.477 log10(CFU/ml) (2×) and 8.041 log10(CFU/ml); killing, average Δlog10(CFU/ml) ([5]; drug concentration 0.5): 3.168 log10(CFU/ml); log10(CFU/ml) of treated nongrowing bacteria (single replicates) ([5]; drug concentration 0.5): 5.778 log10(CFU/ml) and 6.602 log10(CFU/ml) and 4.778 log10(CFU/ml); reduction of bacterial counts, stationary phase P. aeruginosa ([5]; at 0.5 µM, 24 h treatment): more than four; reduction of bacterial counts, non-growing P. aeruginosa ([5]; at 2.5 µM, 1:4 CA-MHB pH 7.4, 24 h treatment): more than four
